The molecules below were run on MIA-PACA2 pancreatic cancer cell lines (assay: Cell proliferation assay (CellTiter 96 AQueous One)). Details: Homo sapiens, MIA PaCa-2; MIA-PACA2, same assay as the % inhibition (standard conditions).
Type: cell-based

IC50 [nM] | SMILES
100 to 500 | COc1ccnc(-c2nc(O)c3c(Br)csc3n2)c1 [drawing 1637]
100 to 500 | Oc1nc(-c2ccccn2)nc2scc(Br)c12 [drawing 1589]
100 to 500 | COc1cccc(N2CCN(C(=O)c3csc4c(O)nc(-c5ccccn5)nc34)CC2)c1 [drawing 1632]
100 to 500 | Oc1nc(-c2ccccn2)nc2c(-c3cccc4c3OCO4)csc12 [drawing 1725]
100 to 500 | Oc1nc(-c2ccccn2)nc2c(-c3ccccc3)csc12 [drawing 1581]

SMILES | IC50 [nM]
O=C(c1csc2c(O)nc(-c3ccccn3)nc12)N1CCN(c2ccccc2)CC1 [drawing 1569] | 100 to 500
CC1CN(c2ccccc2)CCN1C(=O)c1csc2c(O)nc(-c3ccccn3)nc12 (stereo not drawn) [drawing 1654] | 501 to 1000

Same assay, conditions: Homo sapiens, MIA PaCa-2; at 30 μM, MIA-PACA2

SMILES | inhibition at 30 µM [%]
Cc1ccc(-c2ccc(Oc3ccc(C(F)(F)F)cn3)c(C)c2)cc1 [drawing 1526] | 76 to 100
O=C(c1csc2c(O)nc(-c3ccccn3)nc12)N(CCO)CCOCCO [drawing 1576] | 1 to 25
O=C(Cn1c(=O)cnc2ccccc21)Nc1nc(-c2ccccn2)cs1 [drawing 1476] | 76 to 100
COc1ccnc(-c2nc(O)c3c(Br)csc3n2)c1 [drawing 1637] | 76 to 100
O=C(c1csc2c(O)nc(-c3ccccn3)nc12)N1CCC(c2ccncc2)C1 (stereo not drawn) [drawing 1715] | 76 to 100
CCc1ccccc1OCC(=O)Nc1nnc(-c2ccccn2)[nH]1 [drawing 1442] | 76 to 100
Oc1nc(-c2ccccn2)nc2scc(Br)c12 [drawing 1589] | 76 to 100
O=C(Nc1nc(-c2ccccn2)cs1)c1cccc(F)c1 [drawing 1474] | 76 to 100
Oc1nc(-c2ccccn2)nc2c(-c3ccsc3)csc12 [drawing 1751] | 76 to 100
O=C(Nc1nnc(-c2ccccn2)[nH]1)C1=NOC(c2ccccc2)C1 (stereo not drawn) [drawing 1455] | 25 to 50
COc1cccc(N2CCN(C(=O)c3csc4c(O)nc(-c5ccccn5)nc34)CC2)c1 [drawing 1632] | 76 to 100
O=C(Nc1nc(-c2ccccn2)cs1)C1CC(=O)N(c2ccc3c(c2)OCCO3)C1 (stereo not drawn) [drawing 1482] | 76 to 100
CCn1nc(C)cc1-c1csc2c(O)nc(-c3ccccn3)nc12 [drawing 1779] | 76 to 100
O=C(Cn1cnc2ccccc2c1=O)Nc1nc(-c2ccccn2)cs1 [drawing 1481] | 76 to 100
O=C(Cn1c(=O)[nH]c2ccccc21)Nc1nnc(-c2ccccn2)[nH]1 [drawing 1448] | 25 to 50
Oc1nc(-c2ccccn2)nc2c1ncn2-c1ccccc1 [drawing 1583] | 25 to 50
O=C(c1csc2c(O)nc(-c3ccccn3)nc12)N1CCNC(c2ccc(O)cc2)C1 (stereo not drawn) [drawing 1701] | 76 to 100
Cc1nc(-c2ccccn2)nc(O)c1CCC(=O)Nc1cc(F)ccc1F [drawing 1503] | 76 to 100
OC1CCN(c2nc(-c3ccccn3)nc3scc(-c4ccccc4)c23)CC1 [drawing 1619] | 76 to 100
O=C(c1ccn(-c2ccccc2)n1)N1CCCc2c(O)nc(-c3ccccn3)nc21 [drawing 1546] | 76 to 100
O=S(=O)(Oc1cc(C(F)(F)F)cc(C(F)(F)F)c1)N1CCc2ccccc2C1 [drawing 1532] | 25 to 50

SMILES | inhibition at 30 µM [%]
COc1cccc(-c2csc3c(O)nc(-c4ccccn4)nc23)c1 [drawing 1748] | 76 to 100
CC(O)CNc1nc(-c2ccccn2)nc2scc(-c3ccccc3)c12 (stereo not drawn) [drawing 1513] | 76 to 100
Cc1ccc(O)c(CN(C)Cc2nccn2Cc2ccccc2)n1 [drawing 1521] | 76 to 100
Oc1nc(-c2ccccn2)nc2c(-c3cccc4c3OCO4)csc12 [drawing 1725] | 76 to 100
O=C(c1cc2nc(-c3ccccn3)nc(O)c2s1)N1CCN(c2ccccc2)CC1 [drawing 1717] | 76 to 100
O=C(COn1ccnc1)Nc1nc(-c2ccccn2)nc2sccc12 | 76 to 100
COc1ccnc(-c2nc(O)c3c(Cl)csc3n2)c1 [drawing 1693] | 76 to 100
O=C(c1csc2c(O)nc(-c3ccccn3)nc12)N1CCN(c2ccccc2)CC1 [drawing 1569] | 76 to 100
CC(COCc1ccccc1)C(=O)Nc1nnc(-c2ccccn2)[nH]1 (stereo not drawn) [drawing 1429] | 25 to 50
O=S(=O)(CCc1ccccc1)N1CCCc2c(O)nc(-c3ccccn3)nc21 [drawing 1552] | 1 to 25
O=C1CN(c2nc(-c3ccccn3)nc3scc(-c4ccccc4)c23)CCN1CCO [drawing 1594] | 51 to 75
CS(=O)(=O)Cc1ccc(C(=O)Nc2nc(-c3ccccn3)cs2)cc1 [drawing 1479] | 76 to 100
O=C(c1csc2c(O)nc(-c3ccccn3)nc12)N1CCNC(Cc2ccc(F)cc2)C1 (stereo not drawn) [drawing 1707] | 51 to 75
O=C(c1csc2c(O)nc(-c3ccccn3)nc12)N1CCN(c2ccc(F)cc2F)CC1 [drawing 1653] | 76 to 100
OCC1(c2ccc(-c3csc4c(O)nc(-c5ccccn5)nc34)cc2)CC1 [drawing 1762] | 76 to 100
CC(C)NC(=O)Nc1cccc(C(=O)Nc2nnc(-c3ccccn3)[nH]2)c1 [drawing 1384] | 25 to 50
O=C1CCN(c2nc(-c3ccccn3)nc3scc(-c4ccccc4)c23)CC1 [drawing 1627] | 76 to 100
COc1ccc(CCC(=O)N2CCCc3c(O)nc(-c4ccccn4)nc32)cc1 [drawing 1545] | 76 to 100
O=C(COCc1ccncc1)Nc1nc(-c2ccccn2)nc2sccc12 [drawing 1704] | 76 to 100
O=C(Cc1c[nH]c2ccccc12)Nc1nnc(-c2ccccn2)[nH]1 [drawing 1387] | 1 to 25
Oc1nc(-c2ccccn2)nc2sccc12 [drawing 1590] | 76 to 100

SMILES | inhibition at 30 µM [%]
O=C(Nc1nnc(-c2ccccn2)[nH]1)c1cccc(NC(=O)C2CCCO2)c1 (stereo not drawn) [drawing 1414] | 51 to 75
N#Cc1cccc(OCC(=O)Nc2nnc(-c3ccccn3)[nH]2)c1 [drawing 1435] | 25 to 50
O=C(c1csc2c(O)nc(-c3ccccn3)nc12)N1CCC(c2cccnc2)CC1 [drawing 1571] | 76 to 100
COc1ccc(CN(CC[S+]([O-])c2cc(Cl)ccc2Cl)C2CC2)cc1 (stereo not drawn) [drawing 1530] | 51 to 75
O=C(Cc1ccc2c(c1)OCCO2)Nc1nnc(-c2ccccn2)[nH]1 [drawing 1461] | 51 to 75
Oc1nc(-c2ccccn2)nc2c(-c3ccccc3C(F)F)csc12 [drawing 1759] | 76 to 100
CSc1nc(C2CC2)cc(C(=O)NCCc2ccc(S(=O)(=O)NC(=O)c3cc(C4CC4)nc(SC)c3C#N)cc2)c1C#N [drawing 1539] | 1 to 25
Oc1nc(-c2ccccn2)nc2c(-c3ccccc3)csc12 [drawing 1581] | 76 to 100
CC(C)(C)c1noc(CCC(=O)Nc2nnc(-c3ccccn3)[nH]2)n1 [drawing 1412] | 25 to 50
Nc1nc(-c2ccccn2)nc2ccsc12 [drawing 1710] | 1 to 25
COCCCC(=O)N1CCCc2c(O)nc(-c3ccccn3)nc21 [drawing 1550] | 76 to 100
CC1CN(c2ccccc2)CCN1C(=O)c1csc2c(O)nc(-c3ccccn3)nc12 (stereo not drawn) [drawing 1654] | 76 to 100
O=C(CCn1ccc2ccccc21)Nc1nnc(-c2ccccn2)[nH]1 [drawing 1392] | 51 to 75
Cc1nc(-c2ccccn2)nc(O)c1CCC(=O)NC1CCc2ccccc21 (stereo not drawn) [drawing 1504] | 76 to 100
CC1(N)CCN(C(=O)c2csc3c(O)nc(-c4ccccn4)nc23)CC1 [drawing 1573] | 1 to 25
Cc1c(C(=O)Nc2nnc(-c3ccccn3)[nH]2)oc2ccccc12 [drawing 1395] | 76 to 100
O=C(Nc1nnc(-c2ccccn2)[nH]1)c1csc(-c2ccco2)n1 [drawing 1457] | 76 to 100
O=C(COc1ccccc1)Nc1nnc(-c2ccccn2)[nH]1 [drawing 1456] | 25 to 50
O=C(NCCc1cnc(O)nc1)c1csc2nc(-c3ccccn3)nc(N3CCS(=O)(=O)CC3)c12 [drawing 1730] | 1 to 25
N#Cc1ccc(N2CCN(C(=O)c3csc4c(O)nc(-c5ccccn5)nc34)CC2)cc1 [drawing 1650] | 25 to 50
CC(Oc1cccc(C#N)c1)C(=O)Nc1nnc(-c2ccccn2)[nH]1 (stereo not drawn) [drawing 1424] | 76 to 100

SMILES | inhibition at 30 µM [%]
COc1ccc2c(c1)CCC2C(=O)Nc1ccnc(-c2ccccn2)n1 (stereo not drawn) [drawing 1688] | 76 to 100
O=S1(=O)CCN(Cc2cccc(-c3csc4c(O)nc(-c5ccccn5)nc34)c2)CC1 [drawing 1740] | 76 to 100
O=C(NCCc1cccnc1)c1cc2nc(-c3ccccn3)nc(O)c2s1 [drawing 1719] | 76 to 100
N#Cc1cccc(CCNC(=O)c2csc3nc(-c4ccccn4)nc(N4CCOCC4)c23)c1 [drawing 1680] | 76 to 100
O=C(C1CCN(c2nc(-c3ccccn3)nc3scc(-c4ccccc4)c23)CC1)N1CCCCC1 [drawing 1622] | 76 to 100
OCCOCCNc1nc(-c2ccccn2)nc2scc(-c3ccccc3)c12 [drawing 1515] | 76 to 100
Cc1sc2c(O)nc(-c3ccccn3)nc2c1-c1cccnc1 [drawing 1790] | 76 to 100
Cc1nc2nc(C(F)(F)F)nn2c(C)c1CC(=O)Nc1nnc(-c2ccccn2)[nH]1 [drawing 1445] | 51 to 75
COCCN(CCOC)c1nc(-c2ccccn2)nc2scc(C(=O)NCCc3ccc(OC)nc3)c12 [drawing 1685] | 76 to 100
O=C(c1csc2c(O)nc(-c3ccccn3)nc12)N1CCOC(c2cccc(F)c2)C1 (stereo not drawn) [drawing 1635] | 76 to 100
CC(C)COC(C)C(=O)Nc1nnc(-c2ccccn2)[nH]1 (stereo not drawn) [drawing 1418] | 76 to 100
CCOC(=O)NC1CCN(C(=O)c2csc3c(O)nc(-c4ccccn4)nc23)CC1 [drawing 1574] | 51 to 75
O=C(c1cocn1)N1CCCc2c(O)nc(-c3ccccn3)nc21 [drawing 1551] | 1 to 25
O=C(Nc1nc(-c2ccccn2)cs1)c1ccc2nccnc2c1 [drawing 1477] | 76 to 100
CC(OCc1ccccc1)C(=O)Nc1nnc(-c2ccccn2)[nH]1 (stereo not drawn) [drawing 1428] | 51 to 75
O=C1CN(c2nc(-c3ccccn3)nc3scc(-c4ccccc4)c23)CCN1 [drawing 1593] | 1 to 25
Oc1ccc(C2(c3cccc(Cl)c3)CCCC2)cc1 [drawing 1525] | 76 to 100
Oc1nc(-c2ccccn2)nc2c(-c3ccc(OC4CCOCC4)cc3)csc12 [drawing 1743] | 76 to 100
COc1ccc(CCC(=O)Nc2nnc(-c3ccccn3)[nH]2)cc1 [drawing 1398] | 51 to 75
O=C(Nc1nnc(-c2ccccn2)[nH]1)C1CC1c1ccc(F)cc1 (stereo not drawn) [drawing 1432] | 51 to 75

From US10940139B2, “Compounds that interact with the Ras superfamily for the treatment of cancers, inflammatory diseases, rasopathies, and fibrotic disease” (Shy Therapeutics LLC, priority 2017, dated 2021)
